Measured values as given in US8318207B2, “Encapsulation and controlled release of small molecules for intracellular delivery using thermally responsive nanocapsules” (University of South Carolina, priority 2009, dated 2012).

What was measured:
NIH 3T3 fibroblasts = assay: Long-term (3-day) cell proliferation; format: cell-based; details: 0.22 M extracellular trehalose, 40 min incubation (0.5 mg/ml nanocapsules where present)
Description: For long-term cell proliferation studies, cells were seeded in 33 mm Petri dishes at a relatively low density of 1×10^5 cells/dish in 1 ml medium. At 24 h, the cells were exposed to nanocapsules in the same way as that described above for immediate cell viability studies. After cold shock, the cells were further cultured for 3 days to monitor their proliferation (long-term toxicity). This was done by taking at least 10 representative images of the samples every day including the day (taken as day 0) when the cells were exposed to nanocapsules. The total number of cells in each image were counted automatically using NIH ImageJ. […] The collagen production of cells exposed to 0 M trehalose and 0 mg/ml nanocapsules (control), 0.22 M extracellular trehalose and 0 mg/ml nanocapsules (trehalose without NE), and 0.22 M extracellular trehalose and 0.5 mg/ml extracellular nanocapsules (nanoencapsulated with trehalose) was quantified using the Sircol™ Assay kit (Biocolor, Belfast, N. Ireland). […] The absorbance at 540 nm wavelength of the dye was then measured using a BioTek Synergy 2 microplate reader (Winooski, Vt.). Collagen concentration in the collected medium was quantified by comparing its absorbance subtracted with the absorbance of the blank sample with that of the standards.

[1] = Nanoencapsulation and controlled release of trehalose (dialysis, trehalose assay kit); format: physicochemical
Description: The resultant freeze-dried mixture of extra-capsular trehalose and trehalose-loaded nanocapsules was either used immediately or stored at −20° C. for future use.
To determine whether trehalose can be withheld in the nanocapsule at 37° C. for controlled release, the freeze-dried mixture of trehalose and trehalose-loaded nanocapsules was preheated to 37° C. and dissolved in 2 ml warm water at 37° C. in a 15 ml centrifuge tube. The final overall trehalose (i.e., trehalose both inside and outside the nanocapsules) concentration in the solution was 15% (w/v) and the corresponding nanocapsule (excluding the encapsulated trehalose) concentration was 10 mg/ml. Therefore, the total amount of trehalose and nanocapsules (excluding the encapsulated trehalose) in the 2 ml solution was 0.3 and 0.02 g, respectively. The solution in the centrifuge tube was then transferred either after cooling at 22° C. (i.e., cold shocking) for 15 min or immediately into a Spectra/Por dialysis bag (MWCO, 50 kDa) and placed in a beaker containing 1 L of deionized water kept warm at 37° C. with constant stirring using a hotplate/stirrer for 5 hr. It is expected that the 15 min cooling at 22° C. followed by heating at 37° C. in the beaker should result in a quick release of nanoencapsulated trehalose as a result of the more than 15 times of volume expansion and contraction in response to the temperature variation. Control experiments were performed similarly except that 2 ml of 15% (w/v) pure trehalose solution (i.e., in the absence of nanocapsules) was used in the dialysis tube. […] Trehalose concentration in the 0.5 ml samples was determined using a trehalose assay kit (Megazyme Co., Wicklow, Ireland) by following the manufacturer's instructions. […] The absorbance at 340 nm of NADPH was then measured using a Shimazu (Columbia, Md.) UV-2101PC spectrophotometer to determine the amount of trehalose in the original sample.

3T3 fibroblasts [2] = assay: Nanocapsule assisted intracellular delivery of trehalose; format: cell-based; details: extracellular trehalose 0.165 M (nanocapsule 0.375 mg/ml where present), 40 min at 37° C.
Description: The procedures performed for cellular uptake of the trehalose loaded nanocapsules was the same as that described in section 2.6 for the uptake of empty nanocapsules. […] The cells were then detached/lysed in deionized water with the aid of a cell scraper. The cells were further lysed using three cycles of freezing and thawing in liquid nitrogen and 37° C. water bath, respectively. The lysed cell suspension was homogenized for 10 min by sonication using a Branson ultrasonic cleaner (Danbury, Conn.) followed by a brief vortex-mixing. After centrifuging at 10,000 g for 10 min, the supernatant of each sample was divided into two aliquots. One aliquot was used to determine trehalose concentration in the sample using the trehalose assay kit (Megazyme Co. Wicklow, Ireland) as described in the previous section. […] The other aliquot was used to determine cell density in the sample based on its DNA content measured using a method described in Dunn et. al, Long-term in vitro function of adult hepatocytes in a collagen sandwich configuration, Biotechnol Prog 1991 May-Jun;7(3):237-245. […] With the trehalose concentration and cell density in the sample being measured, the total amount of intracellular trehalose and the total number of cells (and thus the total osmotically active cell volume) can be calculated. Therefore, the intracellular trehalose concentration can be determined.

3T3 fibroblasts [3] = assay: Collagen production, Sircol assay; format: cell-based; details: 0.22 M extracellular trehalose, 40 min incubation (0.5 mg/ml nanocapsules where present)
Description: The immediate cell viability, proliferation, and collagen production of 3T3 cells exposed to 0.22 M extracellular trehalose and 0.5 mg/ml nanocapsules (loaded with trehalose) (As will be shown later in Results and Discussion that the intracellular trehalose is ˜0.3 M under this loading condition) were further studied to test the effectiveness of the nanocapsule based approach for intracellular delivery of trehalose. Immediate cell viability and proliferation of the 3T3 cells after loading with trehalose were studied in the same way as that described for 3T3 cells loaded with empty nanocapsules in section 2.6. The collagen production of cells exposed to 0 M trehalose and 0 mg/ml nanocapsules (control), 0.22 M extracellular trehalose and 0 mg/ml nanocapsules (trehalose without NE), and 0.22 M extracellular trehalose and 0.5 mg/ml extracellular nanocapsules (nanoencapsulated with trehalose) was quantified using the Sircol™ Assay kit (Biocolor, Belfast, N. Ireland). To do this, the cells treated under the three conditions were further cultured for 3 days. […] The absorbance at 540 nm wavelength of the dye was then measured using a BioTek Synergy 2 microplate reader (Winooski, Vt.). Collagen concentration in the collected medium was quantified by comparing its absorbance subtracted with the absorbance of the blank sample with that of the standards.

time for trehalose release from the dialysis bag to reach equilibrium ([1]; 2 ml of 15% (w/v) into 1 L deionized water at 37° C.): approximately 2 hours
trehalose released from the dialysis tube ([1]; after one hour, 37° C.): more than 80%
trehalose concentration in the 1 L solution outside the dialysis tube ([1]; at 2 hr, 37° C., no cold shock): 0.3 g/L
3 day collagen production vs control (3T3 fibroblasts [3]): No significant differences
Structure (SMILES): OC[C@H]1O[C@H](O[C@H]2O[C@H](CO)[C@@H](O)[C@H](O)[C@H]2O)[C@H](O)[C@@H](O)[C@@H]1O [Trehalose w/o NE, α,α-trehalose]
3 day cell proliferation vs control (NIH 3T3 fibroblasts): No significant differences
intracellular trehalose concentration (3T3 fibroblasts [2]): 0.02 M
